# Test results from publication PMC7794844 (Molecules, 2020).
# Read-outs that look alike come from different tables or passages of the source.
# Assays:
# ACE2-S-RBD interaction = ACE2-S-RBD interaction (Severe acute respiratory syndrome coronavirus 2, UniProt P0DTC2); type: binding
# S-RBD-His protein = target: T1, S-RBD-His protein (Severe acute respiratory syndrome coronavirus 2, UniProt P0DTC2); experiment: Isothermal titration calorimetry (ITC) of compound with S-RBD-His; type: binding, SARS-CoV-2; conditions: 25 °C, read-out: affinity measured by ITC
# T1 construct: spike S-RBD protein with His tag (26.6 kDa)
# [1] = target: T2, SARS-CoV-2 spike S-RBD protein (Severe acute respiratory syndrome coronavirus 2, UniProt P0DTC2); experiment: biochemical; type: binding
# T2 construct: the S-RBD-mFc protein and ACE2-His protein were immobilized on a CM5 sensor chip; purchased Sino Biological (Beijing, China) 40592-V05H
# [2] = tested on: VSV pseudovirus in 293T-hACE2 cells; type: cell-based, vesicular stomatitis virus
# [3] = tested on: SARS-CoV-2 pseudovirus in 293T-hACE2 cells; experiment: Pseudovirus entry assay (luciferase), SARS-CoV-2 pseudovirus; type: cell-based
# 293T-hACE2 cells = experiment: Cytotoxicity in 293T-hACE2 cells (PrestoBlue / CCK)
# Procedure: (§1) First, cytotoxicity of 02B05 and 03D12 in 293T-hACE2 cells was assayed using PrestoBlue cell viability reagent. Briefly, the cells were seeded into 96-well plates and treated with different concentrations of compounds (a three-fold concentration series from 0.12 to 30 μM for 02B05 and 0.12 to 3.3 μM for 03D12). After incubation at 37 °C for 24 h, 10 μL PrestoBlue (10×) was added to each well and mixed well with the medium. After incubation at 37 °C for another 1 h, the fluorescent signals were read at an excitation wavelength of 560 nm and an emission wavelength of 590 nm, using the EnSpire multimode plate reader (Perkin Elmer, Waltham, MA, USA).
# [4] = as above; conditions: human, 293T-hACE2 cells
# Procedure: as §1
# human ACE2 protein = human ACE2 protein (Homo sapiens, UniProt Q9BYF1); experiment: SPR affinity screen, compounds over immobilized ACE2-His (CM5 chip); type: binding
# human ACE2 protein, sequence (Q9BYF1 18-740 limits assumed): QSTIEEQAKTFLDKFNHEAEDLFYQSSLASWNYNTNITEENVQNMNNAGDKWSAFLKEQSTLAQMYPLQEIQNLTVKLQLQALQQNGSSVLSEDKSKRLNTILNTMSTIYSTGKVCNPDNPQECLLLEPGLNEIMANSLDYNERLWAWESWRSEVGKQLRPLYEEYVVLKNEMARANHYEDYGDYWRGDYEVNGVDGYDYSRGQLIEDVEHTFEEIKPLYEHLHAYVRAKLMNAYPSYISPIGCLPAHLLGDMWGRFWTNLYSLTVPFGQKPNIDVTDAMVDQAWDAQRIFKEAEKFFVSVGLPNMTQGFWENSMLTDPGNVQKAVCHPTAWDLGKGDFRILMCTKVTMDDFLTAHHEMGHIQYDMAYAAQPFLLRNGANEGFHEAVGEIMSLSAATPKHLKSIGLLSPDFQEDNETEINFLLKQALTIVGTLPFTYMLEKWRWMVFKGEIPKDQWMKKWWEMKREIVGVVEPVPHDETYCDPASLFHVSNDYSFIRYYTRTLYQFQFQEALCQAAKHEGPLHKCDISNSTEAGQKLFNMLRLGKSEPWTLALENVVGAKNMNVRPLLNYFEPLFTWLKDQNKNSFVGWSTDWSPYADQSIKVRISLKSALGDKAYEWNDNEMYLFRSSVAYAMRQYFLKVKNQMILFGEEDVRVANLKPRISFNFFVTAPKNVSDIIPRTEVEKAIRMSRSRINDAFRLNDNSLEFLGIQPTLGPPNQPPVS
SMILES,blocking effect on binding of S-RBD to ACE2 (competitive inhibition) (ACE2-S-RBD interaction),Kd [1] [µM],koff [1] [s⁻¹],kon [1] [M⁻¹ s⁻¹],Kd (human ACE2 protein) [µM],koff (human ACE2 protein; read-out: koff) [s⁻¹],kon (human ACE2 protein; read-out: kon) [M⁻¹ s⁻¹],further results
"C[C@@]1(C(=O)O)CC[C@]2(C)CC[C@]3(C)C4=CC(=O)c5c(cc(O)c(O)c5C=O)[C@]4(C)CC[C@@]3(C)[C@@H]2C1 [02B05, demethylzeylasteral]",strongest blocking effect,1.04,0.00244,2350,1.74,,,"Kd (S-RBD-His protein): 2.09 µM; effect on the transduction of VSV pseudovirus [2]: no effect; inhibition at 0.37 µM ([3]; Severe acute respiratory syndrome-related coronavirus, 0.37 μM, 293T-hACE2 cells, 24 h post infection, read-out: inhibition of transduction of SARS-CoV-2 pseudovirus): ~7%; cell viability and cell morphology (293T-hACE2 cells; at 0.37 μM): no changes were observed; cell morphology (293T-hACE2 cells; at 1.1 μM): affected; effect on the activity (viability) of 293T-hACE2 cells (293T-hACE2 cells; concentration no more than 1.1 μM, CCK and PrestoBlue): no significant effect; CC50 at 24 h [4]: 7.67 ± 0.79 µM; koff (human ACE2 protein): 0.00335 s⁻¹; kon (human ACE2 protein): 1990 M⁻¹ s⁻¹"
C=CC(=O)Nc1cc(Nc2nccc(-c3c[nH]c4ccccc34)n2)c(OC)cc1N(C)CCN(C)C [02C15],,9.11,0.0215,2360,,,,
CC(C)c1cc(C(C)C)c(CC(=O)NS(=O)(=O)Oc2ccccc2)c(C(C)C)c1 [02C19],,,,,,0.052,2340,"Kd (human ACE2 protein; target ACE2, SPR, 1:1 binding model for kinetics): 22.2 µM"
Nc1nc(Nc2ccc3c(c2)CC[C@@H](N2CCCC2)CC3)nn1-c1cc2c(nn1)-c1ccccc1CCC2 [02J06],,64.2,0.329,5120,243,0.636,2610,
COc1cc2c(Oc3ccc4[nH]c(C)cc4c3F)ncnc2cc1OCCCN1CCCC1 [03D12],effective in blocking ACE2-S-RBD interaction,4.59,0.00964,2100,3.43,0.00948,2760,inhibitory activity in pseudovirus entry assay ([3]; any concentration tested (0.12 to 3.3 μM)): did not exhibit significant inhibitory activity; inhibitory activity in pseudovirus entry assay ([3]; at 3.3 μM): no obvious; cytotoxicity (293T-hACE2 cells; concentration as high as 3.3 μM): not obvious
"Cl.N [ammonium chloride, reference compound]",,,,,,,,"infection by VSV pseudovirus [2]: almost abolished; infection by SARS-CoV-2 pseudovirus ([3]; positive control, 20 mM, 293T-hACE2 cells): almost abolished"
